Assay results reported in patent US12459922B2 (Gilead Sciences, Inc., priority 2022, dated 2025).

System: endogenous cellular STAT1 (phosphorylated at Tyr701) in NCI-H1373 cells
Assay: Phospho-STAT1 (Tyr701) LANCE Ultra TR-FRET Detection Assay
Format: cell-based
Conditions: Homo sapiens, NCI-H1373, 48 h, phospho-STAT1 (Tyr701) induction, read-out: NH1373 pSTAT1 EC50

SMILES | EC50 [µM]
C[C@@H](CCCn1ccc2cc(-c3nc4cnccn4n3)c(F)cc2c1=O)Nc1cn[nH]c(=O)c1C(F)(F)F [Example 334, (S)-6-([1,2,4]triazolo[1,5-a]pyrazin-2-yl)-7-fluoro-2-(4-((6-oxo-5-(trifluoromethyl)-1,6-dihydropyridazin-4-yl)amino)pentyl)isoquinolin-1(2H)-one] | 0.0241
C[C@@H](CCCn1ccc2cc(-c3ncc(-c4ccccc4F)cn3)c(F)cc2c1=O)Nc1cn[nH]c(=O)c1C(F)(F)F [Example 336, (S)-7-fluoro-6-(5-(2-fluorophenyl)pyrimidin-2-yl)-2-(4-((6-oxo-5-(trifluoromethyl)-1,6-dihydropyridazin-4-yl)amino)pentyl)isoquinolin-1(2H)-one] | 0.0951
C[C@@H](CCCn1cnc2cc(-c3cnc(C(F)(F)F)c(N)n3)c(F)cc2c1=O)Nc1cn[nH]c(=O)c1C(F)(F)F [Example 337, (S)-7-(6-amino-5-(trifluoromethyl)pyrazin-2-yl)-6-fluoro-3-(4-((6-oxo-5-(trifluoromethyl)-1,6-dihydropyridazin-4-yl)amino)pentyl)quinazolin-4(3H)-one] | 0.0366
CC[C@@H](CCCn1cnc2cc(-c3ccc(C(F)F)cn3)c(F)cc2c1=O)Nc1cn[nH]c(=O)c1C(F)(F)F [Example 338, (S)-7-(5-(difluoromethyl)pyridin-2-yl)-6-fluoro-3-(4-((6-oxo-5-(trifluoromethyl)-1,6-dihydropyridazin-4-yl)amino)hexyl)quinazolin-4(3H)-one] | 0.218
CC[C@@H](CCCn1ccc2cc(-c3cnc(C(F)(F)F)c(N)n3)c(F)cc2c1=O)Nc1cn[nH]c(=O)c1C(F)(F)F [Example 339, (S)-6-(6-amino-5-(trifluoromethyl)pyrazin-2-yl)-7-fluoro-2-(4-((6-oxo-5-(trifluoromethyl)-1,6-dihydropyridazin-4-yl)amino)hexyl)isoquinolin-1(2H)-one] | 0.0174
CC[C@@H](CCCn1cnc2cc(-c3ccc(OC(F)F)cn3)c(F)cc2c1=O)Nc1cn[nH]c(=O)c1C(F)(F)F [Example 340, (S)-7-(5-(difluoromethoxy)pyridin-2-yl)-6-fluoro-3-(4-((6-oxo-5-(trifluoromethyl)-1,6-dihydropyridazin-4-yl)amino)hexyl)quinazolin-4(3H)-one] | 0.0971
C[C@@H](CCCn1ccc2cc(-c3ncc(C4(F)COC4)c(N)n3)c(F)cc2c1=O)Nc1cn[nH]c(=O)c1C(F)(F)F [Example 344, (S)-6-(4-amino-5-(3-fluorooxetan-3-yl)pyrimidin-2-yl)-7-fluoro-2-(4-((6-oxo-5-(trifluoromethyl)-1,6-dihydropyridazin-4-yl)amino)pentyl)isoquinolin-1(2H)-one] | 0.0282
CC[C@@H](CCCn1cnc2cc(-c3cnc(C(F)F)cn3)c(F)cc2c1=O)Nc1cn[nH]c(=O)c1C(F)(F)F [Example 346, (S)-7-(5-(difluoromethyl)pyrazin-2-yl)-6-fluoro-3-(4-((6-oxo-5-(trifluoromethyl)-1,6-dihydropyridazin-4-yl)amino)hexyl)quinazolin-4(3H)-one] | 0.187
CC[C@@H](CCCn1cnc2cc(-c3cnc(C(F)(F)F)c(N)n3)c(F)cc2c1=O)Nc1cn[nH]c(=O)c1C(F)(F)F [Example 347, (S)-7-(6-amino-5-(trifluoromethyl)pyrazin-2-yl)-6-fluoro-3-(4-((6-oxo-5-(trifluoromethyl)-1,6-dihydropyridazin-4-yl)amino)hexyl)quinazolin-4(3H)-one] | 0.0934
C[C@@H](CCCn1ccc2cc(-c3cnc(C(F)(F)F)c(N)n3)c(F)c(F)c2c1=O)Nc1cn[nH]c(=O)c1C(F)(F)F [Example 349, (S)-6-(6-amino-5-(trifluoromethyl)pyrazin-2-yl)-7,8-difluoro-2-(4-((6-oxo-5-(trifluoromethyl)-1,6-dihydropyridazin-4-yl)amino)pentyl)isoquinolin-1(2H)-one] | 0.0118
CC[C@@H](CCCn1ccc2cc(-c3ncc(OC)c(N)n3)c(F)c(F)c2c1=O)Nc1cn[nH]c(=O)c1C(F)(F)F [Example 350, (S)-6-(4-amino-5-methoxypyrimidin-2-yl)-7,8-difluoro-2-(4-((6-oxo-5-(trifluoromethyl)-1,6-dihydropyridazin-4-yl)amino)hexyl)isoquinolin-1(2H)-one] | 0.0151
C[C@@H](CCCn1cnc2cc(-c3cnc(Cl)c(N)n3)c(F)cc2c1=O)Nc1cn[nH]c(=O)c1C(F)(F)F [Example 352, (S)-7-(6-amino-5-chloropyrazin-2-yl)-6-fluoro-3-(4-((6-oxo-5-(trifluoromethyl)-1,6-dihydropyridazin-4-yl)amino)pentyl)quinazolin-4(3H)-one] | 0.0644
CC[C@@H](CCCn1ccc2cc(-c3ncc(C(F)(F)F)cn3)c(F)c(F)c2c1=O)Nc1cn[nH]c(=O)c1C(F)(F)F [Example 353, (S)-7,8-difluoro-2-(4-((6-oxo-5-(trifluoromethyl)-1,6-dihydropyridazin-4-yl)amino)hexyl)-6-(5-(trifluoromethyl)pyrimidin-2-yl)isoquinolin-1(2H)-one] | 0.0161
C[C@@H](CCCn1cnc2cc(-c3nc(N)c4ccccc4n3)c(F)cc2c1=O)Nc1cn[nH]c(=O)c1C(F)(F)F [Example 354, (S)-4-amino-6'-fluoro-3'-(4-((6-oxo-5-(trifluoromethyl)-1,6-dihydropyridazin-4-yl)amino)pentyl)-[2,7'-biquinazolin]-4'(3'H)-one] | 0.0651
C[C@@H](CCCn1ccc2cc(-c3nc(N)c4c(n3)COC4)c(F)cc2c1=O)Nc1cn[nH]c(=O)c1C(F)(F)F [Example 357, (S)-6-(4-amino-5,7-dihydrofuro[3,4-d]pyrimidin-2-yl)-7-fluoro-2-(4-((6-oxo-5-(trifluoromethyl)-1,6-dihydropyridazin-4-yl)amino)pentyl)isoquinolin-1(2H)-one] | 0.143
C[C@@H](CCCn1ccc2cc(-c3nc(N)c4c(n3)C(C)(C)OC4)c(F)cc2c1=O)Nc1cn[nH]c(=O)c1C(F)(F)F [Example 358, (S)-6-(4-amino-7,7-dimethyl-5,7-dihydrofuro[3,4-d]pyrimidin-2-yl)-7-fluoro-2-(4-((6-oxo-5-(trifluoromethyl)-1,6-dihydropyridazin-4-yl)amino)pentyl)isoquinolin-1(2H)-one] | 1.33

Compounds with a lower EC50, results first:

EC50 [µM] | SMILES
0.0114 | CC[C@@H](CCCn1ccc2cc(-c3ncc(C(F)F)cn3)c(F)c(F)c2c1=O)Nc1cn[nH]c(=O)c1C(F)(F)F [Example 355, (S)-6-(5-(difluoromethyl)pyrimidin-2-yl)-7,8-difluoro-2-(4-((6-oxo-5-(trifluoromethyl)-1,6-dihydropyridazin-4-yl)amino)hexyl)isoquinolin-1(2H)-one]
0.00984 | CC[C@@H](CCCn1cnc2cc(-c3ncc(Cl)c(N)n3)c(F)cc2c1=O)Nc1cn[nH]c(=O)c1C(F)(F)F [Example 342, (S)-7-(4-amino-5-chloropyrimidin-2-yl)-6-fluoro-3-(4-((6-oxo-5-(trifluoromethyl)-1,6-dihydropyridazin-4-yl)amino)hexyl)quinazolin-4(3H)-one]
0.00839 | C[C@@H](CCCn1ccc2cc(-c3cnc(Cl)c(N)n3)c(F)cc2c1=O)Nc1cn[nH]c(=O)c1C(F)(F)F [Example 351, (S)-6-(6-amino-5-chloropyrazin-2-yl)-7-fluoro-2-(4-((6-oxo-5-(trifluoromethyl)-1,6-dihydropyridazin-4-yl)amino)pentyl)isoquinolin-1(2H)-one]
0.00671 | CC[C@@H](CCCn1ccc2cc(-c3ncc(C(F)F)cn3)c(F)cc2c1=O)Nc1cn[nH]c(=O)c1C(F)(F)F [Example 345, (S)-6-(5-(difluoromethyl)pyrimidin-2-yl)-7-fluoro-2-(4-((6-oxo-5-(trifluoromethyl)-1,6-dihydropyridazin-4-yl)amino)hexyl)isoquinolin-1(2H)-one]
0.00647 | CC[C@@H](CCCn1ccc2cc(-c3ncc(C(F)(F)F)c(N)n3)c(F)c(F)c2c1=O)Nc1cn[nH]c(=O)c1C(F)(F)F [Example 348, (S)-6-(4-amino-5-(trifluoromethyl)pyrimidin-2-yl)-7,8-difluoro-2-(4-((6-oxo-5-(trifluoromethyl)-1,6-dihydropyridazin-4-yl)amino)hexyl)isoquinolin-1(2H)-one]
0.00557 | C[C@@H](CCCn1ccc2cc(-c3nc4cc(F)ccn4n3)c(F)cc2c1=O)Nc1cn[nH]c(=O)c1C(F)(F)F [Example 335, (S)-7-fluoro-6-(7-fluoro-[1,2,4]triazolo[1,5-a]pyridin-2-yl)-2-(4-((6-oxo-5-(trifluoromethyl)-1,6-dihydropyridazin-4-yl)amino)pentyl)isoquinolin-1(2H)-one]
0.0049 | CC[C@@H](CCCn1ccc2cc(-c3ncc(C(F)F)c(N)n3)c(F)c(F)c2c1=O)Nc1cn[nH]c(=O)c1C(F)(F)F [Example 356, (S)-6-(4-amino-5-(difluoromethyl)pyrimidin-2-yl)-7,8-difluoro-2-(4-((6-oxo-5-(trifluoromethyl)-1,6-dihydropyridazin-4-yl)amino)hexyl)isoquinolin-1(2H)-one]
0.00356 | CC[C@@H](CCCn1ccc2cc(-c3ncc(OC)c(N)n3)c(F)cc2c1=O)Nc1cn[nH]c(=O)c1C(F)(F)F [Example 343, (S)-6-(4-amino-5-methoxypyrimidin-2-yl)-7-fluoro-2-(4-((6-oxo-5-(trifluoromethyl)-1,6-dihydropyridazin-4-yl)amino)hexyl)isoquinolin-1(2H)-one]
0.00195 | C[C@@H](CCCn1ccc2cc(-c3ncc(Cl)c(N)n3)c(F)c(F)c2c1=O)Nc1cn[nH]c(=O)c1C(F)(F)F [Example 341, (S)-6-(4-amino-5-chloropyrimidin-2-yl)-7,8-difluoro-2-(4-((6-oxo-5-(trifluoromethyl)-1,6-dihydropyridazin-4-yl)amino)pentyl)isoquinolin-1(2H)-one]
0.00115 | CC[C@@H](CCCn1ccc2cc(-c3ncc(Cl)c(N)n3)c(F)c(F)c2c1=O)Nc1cn[nH]c(=O)c1C(F)(F)F [Example 359, (S)-6-(4-amino-5-chloropyrimidin-2-yl)-7,8-difluoro-2-(4-((6-oxo-5-(trifluoromethyl)-1,6-dihydropyridazin-4-yl)amino)hexyl)isoquinolin-1(2H)-one]
